Where two headings read alike, the source gives them in different places.
Experiments:
[1] = biological target: T1, KRAS G12C (Homo sapiens, UniProt P01116, G12C); assay: Covalent inhibition / binding of KRAS G12C; conditions: binds KRAS G12C and traps it into inactive GDP-bound state
[2] = biological target: T1, KRAS G12C; assay: Cellular assay: downstream effector protein recruitment; type: cell-based; conditions: cellular assays
[3] = test system: KRAS G12C mutant xenograft and patient-derived xenograft tumor models; assay: Xenograft and patient-derived xenograft tumor models; type: in vivo; conditions: mice
[4] = test system: KR ASG12C mutant cell lines; assay: Cellular assays: KRAS-driven oncogenic signaling and proliferation; type: cell-based; conditions: specifically in KRAS G12C mutant cell lines
[5] = Water sorption and desorption isotherms by Dynamic Vapor Sorption (DVS); type: physicochemical; conditions: for hygroscopicity / Change In Mass (%) - ref, Desorption / Change In Mass (%) - ref, Sorption: 25° C.; for hygroscopicity: 0 to 95% RH; for Change In Mass (%) - ref, Desorption / Change In Mass (%) - ref, Sorption: 40-0-95-0-40 (% RH)
Protocol: Water sorption and desorption isotherms were recorded at 25° C., 40° C. or 60° C. using a Dynamic Vapor Sorption (DVS) instrument as follows. The cycle used was as follows: 40-0-95-0-40 (% RH).

[6] = Granulation simulation experiments (XRPD after wetting and grinding); type: physicochemical
Protocol: Granulating solvent was added drop wise to the solid form being tested until the solid form was wetted sufficiently. The wet substance was ground manually. The solid form was evaluated for degree of crystallinity or form change by e.g., XRPD analysis and/or DSC analysis. Granulating solvents were water, pH 4.7, 50 mM acetate buffer, and pH 6.8, 50 mM phosphate buffer.

[7] = XRPD upon variation of humidity and temperature; type: physicochemical
[8] = Bulk stability studies (XRPD, HPLC degradation products); conditions: 1 week 50° C., 75% RH
Protocol: The stability of the crystalline form was investigated as follows. Bulk samples were analysed, e.g. by HPLC and/or XRPD after being exposed to various temperatures and residual humidities.

Compound	Change In Mass (%) - ref, Desorption ([5]; Cycle 1, target RH 0.0%)	Change In Mass (%) - ref, Sorption ([5]; Cycle 1, target RH 0.0%)	Change In Mass (%) - ref, Desorption ([5]; Cycle 1, target RH 10.0%)	Change In Mass (%) - ref, Sorption ([5]; Cycle 1, target RH 10.0%)	Change In Mass (%) - ref, Desorption ([5]; Cycle 1, target RH 20.0%)	Change In Mass (%) - ref, Sorption ([5]; Cycle 1, target RH 20.0%)	Change In Mass (%) - ref, Desorption ([5]; Cycle 1, target RH 30.0%)	Change In Mass (%) - ref, Sorption ([5]; Cycle 1, target RH 30.0%)	Change In Mass (%) - ref, Desorption ([5]; Cycle 1, target RH 40.0%)	Change In Mass (%) - ref, Sorption ([5]; Cycle 1, target RH 40.0%)	Change In Mass (%) - ref, Sorption ([5]; Cycle 1, target RH 50.0%)	Change In Mass (%) - ref, Sorption ([5]; Cycle 1, target RH 60.0%)	Change In Mass (%) - ref, Sorption ([5]; Cycle 1, target RH 70.0%)	Change In Mass (%) - ref, Sorption ([5]; Cycle 1, target RH 80.0%)	Change In Mass (%) - ref, Sorption ([5]; Cycle 1, target RH 90.0%)	Change In Mass (%) - ref, Sorption ([5]; Cycle 1, target RH […])	Change In Mass (%) - ref, Desorption ([5]; Cycle 2, target RH 0.0%)	Change In Mass (%) - ref, Sorption ([5]; Cycle 2, target RH 0.0%)	Change In Mass (%) - ref, Desorption ([5]; Cycle 2, target RH 10.0%)	Change In Mass (%) - ref, Sorption ([5]; Cycle 2, target RH 10.0%)	other results
C=CC(=O)N1CC2(CC(n3nc(-c4ccc5c(cnn5C)c4)c(-c4c(Cl)c(C)cc5[nH]ncc45)c3C)C2)C1 (single isomer, unassigned) [Compound A, 1-{6-[(4M)-4-(5-chloro-6-methyl-1H-indazol-4-yl)-5-methyl-3-(1-methyl-1H-indazol-5-yl)-1H-pyrazol-1-yl]-2-azaspiro[3.3]heptan-2-yl}prop-2-en-1-one]	–	–	–	–	–	–	–	–	–	–	–	–	–	–	–	–	–	–	–	–	inhibition of KRAS G12C [1]: potent and selective covalent inhibitor; downstream effector protein recruitment to KRAS G12C [2]: selectively inhibited; antitumor activity [3]: dose-dependent antitumor activity; expression of the MAPK pathway target gene dual-specific phosphatase 6 (DUPS6) [3]: reduction of expression; KRAS-driven oncogenic signaling and proliferation [4]: inhibited
C=CC(=O)N1CC2(CC(n3nc(-c4ccc5c(cnn5C)c4)c(-c4c(Cl)c(C)cc5[nH]ncc45)c3C)C2)C1 [Hydrate HA]	0.002%	0.002%	2.638%	2.390%	3.008%	2.782%	3.381%	3.184%	3.838%	3.660%	4.295%	5.234%	6.244%	7.007%	7.633%	7.973%	0.000%	0.000%	2.659%	2.388%	water content corresponding to hosted water molecules ([5]; 2.5 molecules of water): 7.9%; hygroscopicity [5]: hygroscopic; water absorbed ([5]; 80% RH at 25° C.): up to 7.0%; Change In Mass (%) - ref, Desorption ([5]; Cycle 2, target RH 20.0%): 3.102%; Change In Mass (%) - ref, Sorption ([5]; Cycle 2, target RH 20.0%): 2.773%; Change In Mass (%) - ref, Desorption ([5]; Cycle 2, target RH 30.0%): 3.573%; Change In Mass (%) - ref, Sorption ([5]; Cycle 2, target RH 30.0%): 3.163%; Change In Mass (%) - ref, Desorption ([5]; Cycle 2, target RH 40.0%): 4.126%; Change In Mass (%) - ref, Sorption ([5]; Cycle 2, target RH 40.0%): 3.624%; Change In Mass (%) - ref, Desorption ([5]; Cycle 2, target RH 50.0%): 5.062%; Change In Mass (%) - ref, Desorption ([5]; Cycle 2, target RH 60.0%): 6.040%; Change In Mass (%) - ref, Desorption ([5]; Cycle 2, target RH 70.0%): 6.816%; Change In Mass (%) - ref, Desorption ([5]; Cycle 2, target RH 80.0%): 7.346%; Change In Mass (%) - ref, Desorption ([5]; Cycle 2, target RH 90.0%): 7.766%; Change In Mass (%) - ref, Desorption ([5]; Cycle 2, target RH […]): 7.973%; molecules of water hosted ([5]; depending on the relative humidity): up to 2.5 molecules; XRPD after granulation simulation ([6]; solvent for granulation: Water): no form change; form change on heating ([7]; at 80° C.): converts into an anhydrous form, namely Modification A; XRPD pattern on heating ([7]; heated at ambient relative humidity from 25° C. to 65° C.): remains unchanged; form change after equilibration (XRPD) (50° C. and 70° C.): formation of several solvates in cyclohexane, ethanol, isopropanol or 1,2-propanediol
C=CC(=O)N1CC2(CC(n3nc(-c4ccc5c(cnn5C)c4)c(-c4c(Cl)c(C)cc5[nH]ncc45)c3C)C2)C1.O.O.O.O [Hydrate HB]	0.00%	0.00%	1.87%	0.56%	2.62%	2.03%	12.26%	2.51%	12.73%	2.81%	3.17%	3.69%	5.09%	10.34%	12.94%	13.35%	−0.09%	−0.09%	1.74%	0.47%	% Degradation Products, as measured by HPLC ([8]; area-% products): 3.97%; maximum water uptake ([5]; 25° C. and up to 95% RH): about 13%; Change In Mass (%) - ref, Desorption ([5]; Cycle 2, target RH 20.0%): 2.37%; Change In Mass (%) - ref, Sorption ([5]; Cycle 2, target RH 20.0%): 1.88%; Change In Mass (%) - ref, Desorption ([5]; Cycle 2, target RH 30.0%): 11.38%; Change In Mass (%) - ref, Sorption ([5]; Cycle 2, target RH 30.0%): 2.32%; Change In Mass (%) - ref, Desorption ([5]; Cycle 2, target RH 40.0%): 11.87%; Change In Mass (%) - ref, Sorption ([5]; Cycle 2, target RH 40.0%): 2.69%; Change In Mass (%) - ref, Desorption ([5]; Cycle 2, target RH 50.0%): 12.24%; Change In Mass (%) - ref, Desorption ([5]; Cycle 2, target RH 60.0%): 12.53%; Change In Mass (%) - ref, Desorption ([5]; Cycle 2, target RH 70.0%): 12.78%; Change In Mass (%) - ref, Desorption ([5]; Cycle 2, target RH 80.0%): 13.02%; Change In Mass (%) - ref, Desorption ([5]; Cycle 2, target RH 90.0%): 13.24%; Change In Mass (%) - ref, Desorption ([5]; Cycle 2, target RH […]): 13.35%; form change at 0% RH ([7]; 0% RH): completely dehydrates; form change on heating ([7]; further heating to 70° C. and above): converts to an anhydrous form, Modification B; XRPD pattern on heating ([7]; heated from 25° C. to 40° C.): changes to hydrate HC
C=CC(=O)N1CC2(CC(n3nc(-c4ccc5c(cnn5C)c4)c(-c4c(Cl)c(C)cc5[nH]ncc45)c3C)C2)C1 [Modification C]	−0.0018%	−0.0018%	0.0522%	0.0639%	0.0984%	0.1010%	0.1282%	0.1365%	0.1658%	0.1764%	0.2099%	0.2719%	0.2954%	0.3628%	0.4475%	0.5450%	−0.0143%	−0.0143%	0.0532%	0.0434%	XRPD after bulk storage [8]: No change; hygroscopicity [5]: non hygroscopic; Change In Mass (%) - ref, Desorption ([5]; Cycle 2, target RH 20.0%): 0.1019%; Change In Mass (%) - ref, Sorption ([5]; Cycle 2, target RH 20.0%): 0.0893%; Change In Mass (%) - ref, Desorption ([5]; Cycle 2, target RH 30.0%): 0.1500%; Change In Mass (%) - ref, Desorption ([5]; Cycle 2, target RH 40.0%): 0.2014%; Change In Mass (%) - ref, Sorption ([5]; Cycle 2, target RH 40.0%): 0.1725%; Change In Mass (%) - ref, Desorption ([5]; Cycle 2, target RH 50.0%): 0.2678%; Change In Mass (%) - ref, Desorption ([5]; Cycle 2, target RH 60.0%): 0.3212%; Change In Mass (%) - ref, Desorption ([5]; Cycle 2, target RH 70.0%): 0.3789%; Change In Mass (%) - ref, Desorption ([5]; Cycle 2, target RH 80.0%): 0.4299%; Change In Mass (%) - ref, Desorption ([5]; Cycle 2, target RH 90.0%): 0.5046%; Change In Mass (%) - ref, Desorption ([5]; Cycle 2, target RH […]): 0.5450%; form change after granulation simulation ([6]; aqueous media as the solvent for granulation): no form change; form change after equilibration (in ethanol, and methanol): converts to Hydrate HA; form change after equilibration (in isopropanol): converts into a mixture of HA and the isopropanol solvate

Reference: patent US20240116900A1, “NEW CRYSTALLINE FORMS OF A KRAS G12C INHIBITOR COMPOUND” (NOVARTIS AG, priority 2020, published 2024)
